Laboratory results from ChEMBL document CHEMBL1201862, “PubChem BioAssay data set” (2004).
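Where inhibition never reached the appropriate level, the endpoint shown equals the highest concentration tested. Otherwise, values were interpolated linearly from a five-concentration, 48-hour dose response in 96-well plates. The concentration for 50% growth inhibition is given as GI50.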 Calls of active or inactive are those of the source. Cut-off read from the data, not from the text of the source: active = GI50 up to about 1.1 µM and inactive = higher.

Key:
Test in all cases: NCI tumour cell line growth inhibition, 48 h
[1] = system: HT-29
[2] = system: SF-539
[3] = system: M14
[4] = system: CAKI-1
[5] = system: OVCAR-4
[6] = system: HOP-92
[7] = system: LOX IMVI
[8] = system: KM12
[9] = system: SK-MEL-5
[10] = system: OVCAR-3
[11] = system: XF498
[12] = system: UACC-62
[13] = system: HL-60
[14] = system: DMS-114
[15] = system: SNB-78
[16] = system: COLO 205
[17] = system: TK-10
[18] = system: UO-31
[19] = system: NCI-H522
[20] = system: SNB-75
[21] = system: SR
[22] = system: RPMI-8226
[23] = system: A549
[24] = system: Malme-3M
[25] = system: SK-OV-3
[26] = system: UACC-257
[27] = system: DLD-1
[28] = system: DMS-273
[29] = system: KM-20L2
[30] = system: 786-0
[31] = system: CCRF-CEM
[32] = system: MOLT-4
[33] = system: SN12C
[34] = system: NCI-H23
[35] = system: HCT-15
[36] = system: ACHN
[37] = system: SF-295
[38] = system: NCI-H460
[39] = system: SW-620
[40] = system: NCI-H226
[41] = system: U-251
[42] = system: M19-MEL
[43] = system: HOP-62
[44] = system: SF-268
[45] = system: OVCAR-8
[46] = system: SK-MEL-28
[47] = system: HCC 2998
[48] = system: LXFL 529
[49] = system: RXF 393
[50] = system: OVCAR-5
[51] = system: HCT-116
[52] = system: IGROV-1
[53] = system: K562
[54] = system: A498
[55] = system: HOP-18
[56] = system: SNB-19
[57] = system: SK-MEL-2
[58] = system: EKVX

## CC(CCCOC(c1ccccc1)(c1ccccc1)c1ccccc1)OC(=O)Nc1ccccc1 (stereo unspecified)
[1]
  GI50: 13.1 µM (inactive)
[2]
  GI50: 17.8 µM (inactive)
[3]
  GI50: 14.2 µM (inactive)
[4]
  GI50: 13.5 µM (inactive)
[5]
  GI50: 12.4 µM (inactive)
[6]
  GI50: 10 µM (inactive)
[7]
  GI50: 12.7 µM (inactive)
[8]
  GI50: 14 µM (inactive)
[9]
  GI50: 14.1 µM (inactive)
[10]
  GI50: 14 µM (inactive)
[11]
  GI50: 14.9 µM (inactive)
[12]
  GI50: 12.8 µM (inactive)
[13]
  GI50: 11.6 µM (inactive)
[14]
  GI50: 12.1 µM (inactive)
[15]
  GI50: 16.4 µM (inactive)
[16]
  GI50: 18.2 µM (inactive)
[17]
  GI50: 20.4 µM (inactive)
[18]
  GI50: 11.6 µM (inactive)
[19]
  GI50: 11.7 µM (inactive)
[20]
  GI50: 14.5 µM (inactive)
[21]
  GI50: 18.6 µM (inactive)
[22]
  GI50: 15 µM (inactive)
[23]
  GI50: 11.1 µM (inactive)
[24]
  GI50: 15.8 µM (inactive)
[25]
  GI50: 14.2 µM (inactive)
[26]
  GI50: 15.3 µM (inactive)
[27]
  GI50: 13.7 µM (inactive)
[28]
  GI50: 15.5 µM (inactive)
[29]
  GI50: 5.12 µM (inactive)
[30]
  GI50: 16.1 µM (inactive)
[31]
  GI50: 14.6 µM (inactive)
[32]
  GI50: 4.55 µM (inactive)
[33]
  GI50: 12 µM (inactive)
[34]
  GI50: 9.84 µM (inactive)
[35]
  GI50: 14.4 µM
[36]
  GI50: 13.6 µM (inactive)
[37]
  GI50: 12.7 µM (inactive)
[38]
  GI50: 11.7 µM (inactive)
[39]
  GI50: 14.4 µM (inactive)
[40]
  GI50: 12.6 µM (inactive)
[41]
  GI50: 13.6 µM (inactive)
[42]
  GI50: 14.6 µM (inactive)
[43]
  GI50: 14.8 µM (inactive)
[44]
  GI50: 12.8 µM (inactive)
[45]
  GI50: 14 µM (inactive)
[46]
  GI50: 15.3 µM (inactive)
[47]
  GI50: 14.1 µM (inactive)
[48]
  GI50: 13.2 µM (inactive)
[49]
  GI50: 12.8 µM (inactive)
[50]
  GI50: 13.7 µM (inactive)
[51]
  GI50: 11.1 µM (inactive)
[52]
  GI50: 16.4 µM (inactive)
[53]
  GI50: 11.3 µM (inactive)

## CCCCCCCCOCC(O)COC (stereo unspecified)
[1]
  GI50: > 100 µM (inactive)
[3]
  GI50: > 100 µM (inactive)
[4]
  GI50: > 100 µM (inactive)
[5]
  GI50: > 100 µM (inactive)
[6]
  GI50: 82.6 µM (inactive)
[7]
  GI50: > 100 µM (inactive)
[9]
  GI50: > 100 µM (inactive)
[10]
  GI50: 94.6 µM (inactive)
[12]
  GI50: > 100 µM (inactive)
[13]
  GI50: > 100 µM (inactive)
[54]
  GI50: > 100 µM (inactive)
[14]
  GI50: > 100 µM (inactive)
[16]
  GI50: > 100 µM (inactive)
[17]
  GI50: > 100 µM (inactive)
[18]
  GI50: > 100 µM (inactive)
[21]
  GI50: > 100 µM (inactive)
[22]
  GI50: > 100 µM (inactive)
[23]
  GI50: > 100 µM (inactive)
[24]
  GI50: > 100 µM (inactive)
[25]
  GI50: > 100 µM (inactive)
[26]
  GI50: 69.7 µM (inactive)
[55]
  GI50: > 100 µM (inactive)
[27]
  GI50: > 100 µM (inactive)
[28]
  GI50: > 100 µM (inactive)
[30]
  GI50: > 100 µM (inactive)
[31]
  GI50: > 100 µM (inactive)
[56]
  GI50: > 100 µM (inactive)
[32]
  GI50: > 100 µM (inactive)
[33]
  GI50: > 100 µM (inactive)
[34]
  GI50: > 100 µM (inactive)
[35]
  GI50: > 100 µM
[36]
  GI50: > 100 µM (inactive)
[37]
  GI50: > 100 µM (inactive)
[38]
  GI50: > 100 µM (inactive)
[39]
  GI50: > 100 µM (inactive)
[40]
  GI50: > 100 µM (inactive)
[41]
  GI50: > 100 µM (inactive)
[42]
  GI50: > 100 µM (inactive)
[43]
  GI50: > 100 µM (inactive)
[44]
  GI50: > 100 µM (inactive)
[45]
  GI50: > 100 µM (inactive)
[46]
  GI50: > 100 µM (inactive)
[47]
  GI50: > 100 µM (inactive)
[48]
  GI50: > 100 µM (inactive)
[50]
  GI50: > 100 µM (inactive)
[51]
  GI50: > 100 µM (inactive)
[52]
  GI50: > 100 µM (inactive)
[53]
  GI50: 63.8 µM (inactive)

## COc1cc2cnc3c4cc(OC(C)C)c(OC)cc4ccc3c2cc1OC
[1]
  GI50: > 100 µM (inactive)
[2]
  GI50: > 100 µM (inactive)
[3]
  GI50: > 100 µM (inactive)
[4]
  GI50: > 100 µM (inactive)
[5]
  GI50: > 100 µM (inactive)
[8]
  GI50: > 100 µM (inactive)
[9]
  GI50: > 100 µM (inactive)
[10]
  GI50: > 100 µM (inactive)
[11]
  GI50: > 100 µM (inactive)
[57]
  GI50: > 100 µM (inactive)
[12]
  GI50: > 100 µM (inactive)
[54]
  GI50: > 100 µM (inactive)
[14]
  GI50: > 100 µM (inactive)
[16]
  GI50: > 100 µM (inactive)
[17]
  GI50: > 100 µM (inactive)
[18]
  GI50: > 100 µM (inactive)
[19]
  GI50: > 100 µM (inactive)
[20]
  GI50: > 100 µM (inactive)
[22]
  GI50: > 100 µM (inactive)
[23]
  GI50: > 100 µM (inactive)
[24]
  GI50: > 100 µM (inactive)
[25]
  GI50: > 100 µM (inactive)
[26]
  GI50: > 100 µM (inactive)
[55]
  GI50: > 100 µM (inactive)
[27]
  GI50: > 100 µM (inactive)
[29]
  GI50: > 100 µM (inactive)
[30]
  GI50: > 100 µM (inactive)
[31]
  GI50: > 100 µM (inactive)
[56]
  GI50: > 100 µM (inactive)
[32]
  GI50: > 100 µM (inactive)
[33]
  GI50: > 100 µM (inactive)
[34]
  GI50: > 100 µM (inactive)
[35]
  GI50: > 100 µM
[36]
  GI50: > 100 µM (inactive)
[37]
  GI50: > 100 µM (inactive)
[38]
  GI50: > 100 µM (inactive)
[39]
  GI50: > 100 µM (inactive)
[41]
  GI50: > 100 µM (inactive)
[42]
  GI50: > 100 µM (inactive)
[43]
  GI50: > 100 µM (inactive)
[44]
  GI50: > 100 µM (inactive)
[45]
  GI50: > 100 µM (inactive)
[46]
  GI50: > 100 µM (inactive)
[47]
  GI50: > 100 µM (inactive)
[58]
  GI50: > 100 µM (inactive)
[48]
  GI50: > 100 µM (inactive)
[50]
  GI50: > 100 µM (inactive)
[51]
  GI50: > 100 µM (inactive)
[52]
  GI50: > 100 µM (inactive)
[53]
  GI50: > 100 µM (inactive)
